Test results taken from patent US20070049564A1 (Wyeth, priority 2005, published 2007).
≈ marks a conversion by molar mass, not a printed value. Where two headings read alike, the source gives them in different places.

Assays:
[1] = tested on: S. epidermidis GC 4935; assay: MIC, broth microdilution; conditions: Staphylococcus epidermidis
[2] = tested on: S. aureus GC 1079; assay: MIC, broth microdilution; conditions: Staphylococcus aureus
[3] = tested on: E. coli GC 2270; assay: MIC, broth microdilution; conditions: Escherichia coli
[4] = tested on: S. pneumoniae+ GC 4465; assay: MIC, broth microdilution; conditions: Streptococcus pneumoniae
[5] = tested on: c. albicans GC 3066; assay: MIC, broth microdilution
[6] = tested on: E. coli GC 2271; assay: MIC, broth microdilution; conditions: Escherichia coli
Description: (§1) Antimicrobial susceptibility testing. The in vitro activities of the antibiotics are determined by the broth microdilution method as recommended by the National Committee for Clinical Laboratory Standards (NCCLS) (1). Mueller-Hinton II broth (MHBII)(BBL Cockeysville, Md.) is the medium employed in the testing procedures. Microtiter plates containing serial dilutions of each antimicrobial agent are inoculated with each organism to yield the appropriate density (10^5 CFU/ml) in a 100 μl final volume. The plates are incubated for 18-22 hours at 35° C. in ambient air.
(§2) Representative compounds were first incubated in mouse serum for an hour prior to the in vitro testing against a panel of selected gram-positive and gram-negative bacteria strains. All compounds were also pre-incubated in water for an hour prior to testing as control.

[7] = tested on: E. faecalis GC 2242; assay: MIC, broth microdilution; conditions: Enterococcus faecalis
[8] = tested on: Staph. aureus Smith; assay: In vivo activity (oral, iv; ED50) against Staph. aureus Smith in mice
Description: Representative examples of compounds of Formula I were tested for the oral efficacy using S. aureus Smith in mice.

[9] = tested on: E. coli GC 2234; assay: MIC, broth microdilution; conditions: Escherichia coli
[10] = tested on: E. coli GC 2235; assay: MIC, broth microdilution; conditions: Escherichia coli
[11] = tested on: S. aureus GC 6335; assay: MIC, broth microdilution; conditions: Staphylococcus aureus
[12] = tested on: E. coli GC 1073; assay: MIC, broth microdilution; conditions: Escherichia coli
[13] = tested on: S. aureus GC 1131; assay: MIC, broth microdilution; conditions: Staphylococcus aureus
Description: as §1, §2

[14] = tested on: E. coli GC 2236; assay: MIC, broth microdilution; conditions: Escherichia coli
[15] = tested on: S. pyogenes GC 4563; assay: MIC, broth microdilution; conditions: Streptococcus pyogenes
[16] = tested on: E. coli GC 2233; assay: MIC, broth microdilution; conditions: Escherichia coli
[17] = tested on: E. coli GC 4559; assay: MIC, broth microdilution; conditions: Escherichia coli
[18] = tested on: S. aureus GC 2216; assay: MIC, broth microdilution; conditions: Staphylococcus aureus
[19] = tested on: E. faecium GC 4556; assay: MIC, broth microdilution; conditions: Enterococcus faecium
[20] = tested on: P. aeruginosa GC 2214; assay: MIC, broth microdilution; conditions: Pseudomonas aeruginosa

SMILES: CCCN(CC(=O)Nc1cc(N(C)C)c2c(c1O)C(=O)C1=C(O)[C@]3(O)C(=O)C(C(N)=O)=C(O)[C@@H](N(C)C)[C@@H]3C[C@@H]1C2)C(=O)OCOC(=O)c1cccs1 [Example 25, ({[(2-{[(5aR,6aS,7S,10aS)-9-(aminocarbonyl)-4,7-bis(dimethylamino)-1,8,10a,11-tetrahydroxy-10,12-dioxo-5,5a,6,6a,7,10,10a,12-octahydrotetracen-2-yl]amino}-2-oxoethyl)(propyl)amino]carbonyl}oxy)methyl thiophene-2-carboxylate]
- MIC ([1]; GC4935, read-out: MINIMAL INHIBITORY CONCENTRATION MIC, pre-incubated in Mouse Serum): 1 µg/mL (≈ 1.32 µM)
- MIC ([1]; GC4935, read-out: MINIMAL INHIBITORY CONCENTRATION MIC, pre-incubated in Water): 2 µg/mL (≈ 2.65 µM)
- MIC ([2]; GC1079, read-out: MINIMAL INHIBITORY CONCENTRATION MIC, pre-incubated in Mouse Serum): 1 µg/mL (≈ 1.32 µM)
- MIC ([2]; GC1079, read-out: MINIMAL INHIBITORY CONCENTRATION MIC, pre-incubated in Water): 2 µg/mL (≈ 2.65 µM)
- MIC ([3]; GC2270, read-out: MINIMAL INHIBITORY CONCENTRATION MIC, pre-incubated in Mouse Serum): 1 µg/mL (≈ 1.32 µM)
- MIC ([3]; GC2270, read-out: MINIMAL INHIBITORY CONCENTRATION MIC, pre-incubated in Water): > 64 µg/mL
- MIC ([4]; read-out: MINIMAL INHIBITORY CONCENTRATION MIC, pre-incubated in Mouse Serum): 4 µg/mL (≈ 5.29 µM)
- MIC ([4]; read-out: MINIMAL INHIBITORY CONCENTRATION MIC, pre-incubated in Water): 4 µg/mL (≈ 5.29 µM)
- MIC ([5]; Candida albicans, GC3066, read-out: MINIMAL INHIBITORY CONCENTRATION MIC): > 64 µg/mL
- MINIMAL INHIBITORY CONCENTRATION MIC ([5]; pre-incubated in Water): >64 UG/ML
- MIC ([6]; GC2271, read-out: MINIMAL INHIBITORY CONCENTRATION MIC, pre-incubated in Mouse Serum): 1 µg/mL (≈ 1.32 µM)
- MIC ([6]; GC2271, read-out: MINIMAL INHIBITORY CONCENTRATION MIC, pre-incubated in Water): 32 µg/mL (≈ 42.3 µM)
- MIC ([7]; GC2242, read-out: MINIMAL INHIBITORY CONCENTRATION MIC, pre-incubated in Mouse Serum): 2 µg/mL (≈ 2.65 µM)
- MIC ([7]; GC2242, read-out: MINIMAL INHIBITORY CONCENTRATION MIC, pre-incubated in Water): 2 µg/mL (≈ 2.65 µM)
- ED50 ([8]; Staphylococcus aureus, in Mus musculus, po, read-out: ED50 Staph Smith SOD): 15.7 mg/kg
- ED50 ([8]; iv, read-out: ED50 Staph Smith SIV): 0.56 mg/kg
- MIC ([9]; GC2234, read-out: MINIMAL INHIBITORY CONCENTRATION MIC, pre-incubated in Mouse Serum): 1 µg/mL (≈ 1.32 µM)
- MIC ([9]; GC2234, read-out: MINIMAL INHIBITORY CONCENTRATION MIC, pre-incubated in Water): > 64 µg/mL
- MIC ([10]; GC2235, read-out: MINIMAL INHIBITORY CONCENTRATION MIC, pre-incubated in Mouse Serum): 1 µg/mL (≈ 1.32 µM)
- MIC ([10]; GC2235, read-out: MINIMAL INHIBITORY CONCENTRATION MIC, pre-incubated in Water): 32 µg/mL (≈ 42.3 µM)
- MIC ([11]; GC6335, read-out: MINIMAL INHIBITORY CONCENTRATION MIC, pre-incubated in Mouse Serum): 0.5 µg/mL (≈ 0.662 µM)
- MIC ([11]; GC6335, read-out: MINIMAL INHIBITORY CONCENTRATION MIC, pre-incubated in Water): 0.5 µg/mL (≈ 0.662 µM)
- MIC ([12]; GC1073, read-out: MINIMAL INHIBITORY CONCENTRATION MIC, pre-incubated in Mouse Serum): 2 µg/mL (≈ 2.65 µM)
- MIC ([12]; GC1073, read-out: MINIMAL INHIBITORY CONCENTRATION MIC, pre-incubated in Water): > 64 µg/mL
- MIC ([13]; GC1131, read-out: MINIMAL INHIBITORY CONCENTRATION MIC, pre-incubated in Mouse Serum): 0.5 µg/mL (≈ 0.662 µM)
- MIC ([13]; GC1131, read-out: MINIMAL INHIBITORY CONCENTRATION MIC, pre-incubated in Water): 0.5 µg/mL (≈ 0.662 µM)
- MIC ([14]; GC2236, read-out: MINIMAL INHIBITORY CONCENTRATION MIC, pre-incubated in Mouse Serum): 2 µg/mL (≈ 2.65 µM)
- MIC ([14]; GC2236, read-out: MINIMAL INHIBITORY CONCENTRATION MIC, pre-incubated in Water): 64 µg/mL (≈ 84.7 µM)
- MIC ([15]; GC4563, read-out: MINIMAL INHIBITORY CONCENTRATION MIC, pre-incubated in Mouse Serum): 0.12 µg/mL (≈ 0.159 µM)
- MIC ([15]; GC4563, read-out: MINIMAL INHIBITORY CONCENTRATION MIC, pre-incubated in Water): 0.25 µg/mL (≈ 0.331 µM)
- MIC ([16]; GC2233, read-out: MINIMAL INHIBITORY CONCENTRATION MIC, pre-incubated in Mouse Serum): 2 µg/mL (≈ 2.65 µM)
- MIC ([16]; GC2233, read-out: MINIMAL INHIBITORY CONCENTRATION MIC, pre-incubated in Water): 32 µg/mL (≈ 42.3 µM)
- MIC ([17]; GC4559, read-out: MINIMAL INHIBITORY CONCENTRATION MIC, pre-incubated in Mouse Serum): 2 µg/mL (≈ 2.65 µM)
- MIC ([17]; GC4559, read-out: MINIMAL INHIBITORY CONCENTRATION MIC, pre-incubated in Water): > 64 µg/mL
- MIC ([18]; GC2216, read-out: MINIMAL INHIBITORY CONCENTRATION MIC, pre-incubated in Mouse Serum): 0.5 µg/mL (≈ 0.662 µM)
- MIC ([18]; GC2216, read-out: MINIMAL INHIBITORY CONCENTRATION MIC, pre-incubated in Water): 1 µg/mL (≈ 1.32 µM)
- MIC ([19]; GC4556, read-out: MINIMAL INHIBITORY CONCENTRATION MIC, pre-incubated in Mouse Serum): 1 µg/mL (≈ 1.32 µM)
- MIC ([19]; GC4556, read-out: MINIMAL INHIBITORY CONCENTRATION MIC, pre-incubated in Water): 4 µg/mL (≈ 5.29 µM)
- MIC ([20]; GC2214, read-out: MINIMAL INHIBITORY CONCENTRATION MIC, pre-incubated in Mouse Serum): 32 µg/mL (≈ 42.3 µM)
- MIC ([20]; GC2214, read-out: MINIMAL INHIBITORY CONCENTRATION MIC, pre-incubated in Water): > 64 µg/mL
